The record followed here is patent US8093241B2, “Acid amide derivatives, process for their production and pesticides containing them” (Ishihara Sangyo Kaisha, Ltd., priority 2001, dated 2012).

Series [1] relates to Southern Root-Knot Nematode (Meloidgyne incognita). In words: Test on southern root-knot nematode (soil incorporation). Type of series: in vivo. More on the design: key: 0: No knot was formed; 1: Knots were formed to a slight degree; 2: Knots were formed to a moderate degree; 3: Knots were formed to a heavy degree; 4: Knots were formed to the heaviest degree. The conditions noted are these: 7 ml of 1600 ppm solution to 300 ml contaminated soil, tomato seedling, three to four weeks after transplantation. On the procedure:
Test on Southern Root-Knot Nematode (Meloidgyne incognita) (Soil Incorporation)
To 300 ml of the soil contaminated by southern root-knot nematode, 7 ml of a chemical solution having the concentration of the compound of the present invention adjusted to be 1600 ppm, is poured, followed by mixing so that the compound is uniformly dispersed. The treated soil is put into a pot (diameter: 9 cm, height: 8 cm), and then a tomato seedling in 2-leaf stage is transplanted and placed in a greenhouse. After three to four weeks from the transplantation of the tomato, the root knot index is determined based on the following standards. […] For example, the compound Nos. 1-25, 1-26, 1-73, 1-100, 1-122, 1-123, 1-125, 1-127, 1-130, 1-131, 1-133, 1-136, 1-137, 1-139, 1-140, 1-172, 1-173, 1-177, 5-5, 5-9, 5-11, 5-16, 5-20, 8-2, 8-5, 13-2, 13-4, 13-6, 13-7, 13-18, 13-19, 13-44, 13-45, 16-32, 16-37 and 16-38 were at a level of a root knot index of not more than 1.

Regarding “2-fluoro-N-[2-[(2,2,3,3,-tetrafluoro-5-methyl-1,4-benzodioxan-6-yl)carbonyl]-2-propyl]benzamide [Compound No. 16-37]”, the root knot index in series [1] was found to be 1.

On to `CC(C)(NC(=O)c1c(F)cccc1F)C(=O)c1ccc(OS(C)(=O)=O)cc1` [Compound No. 1-25, 2,6-difluoro-N-[(1,1-dimethyl-4′-methylsulfonyloxy)phenacyl]benzamide], for which the root knot index in series [1] was determined as 1.

`CC(C)(NC(=O)c1c(F)cccc1F)C(=O)c1ccc(OS(=O)(=O)C(F)(F)F)cc1` [Compound No. 1-26, 2,6-difluoro-N-[(1,1-dimethyl-4′-trifluoromethylsulfonyloxy)phenacyl]benzamide] came in with a root knot index in series [1] of 1.

In series [1], `CC(C)(NC(=O)c1ccccc1C(N)=O)C(=O)c1ccc(Cl)cc1` [Compound No. 1-122, 2-aminocarbonyl-N-[(4′-chloro-1,1-dimethyl)phenacyl]benzamide] yielded a root knot index of 1.

`CC(C)(NC(=O)c1c(F)cccc1F)C(=O)c1ccsc1` [Compound No. 6-5, 2,6-difluoro-N-[1-methyl-1-(3-thenoyl)ethyl]benzamide]: the melting point (as a rule, the temperature, or range, at which the solid turns liquid) fell in the range of 139 to 142 °C.

In turn, `CC(C)(NC(=O)c1c(F)cccc1F)C(=O)c1ccc(C(F)(F)F)cn1` [Compound No. 8-43, 2,6-difluoro-N-[2-(5-trifluoromethyl-2-pyridylcarbonyl)-2-propyl]benzamide] yielded a melting point of 116 to 119 °C.
